Experimental data from ChEMBL document CHEMBL3885881, “DrugMatrix”.

Species: Rattus norvegicus
Assay: DrugMatrix - Regimen: Daily Repeat
Format: toxicity, organism-based, Sprague-Dawley
Design: regimen Daily Repeat, gender Male, age 6-8 weeks
Conditions: in vivo, po, route oral GAVAGE, vehicle 100 % SALINE
[1] = 0 mg/kg, 72 h, tissue Blood, dose level Control, time 3 day
[2] = 0 mg/kg, 72 h, tissue Plasma, dose level Control, time 3 day
[3] = 0 mg/kg, 120 h, tissue Blood, dose level Control, time 5 day
[4] = 0 mg/kg, 120 h, tissue Plasma, dose level Control, time 5 day
[5] = 200 mg/kg, 72 h, tissue Blood, dose level Low, time 3 day
[6] = 200 mg/kg, 72 h, tissue Plasma, dose level Low, time 3 day

With LEAD(IV) ACETATE the “ABSOLUTE BASOPHIL” value [1] was 0 CELLS/uL, the “ABSOLUTE EOSINOPHIL” value [1] was 37 CELLS/uL and the “ABSOLUTE LYMPHOCYTE” value [1] was 12359.33 CELLS/uL. For the same substance, the “ABSOLUTE MONOCYTE” value [1] was 122.67 CELLS/uL, the “ABSOLUTE SEGMENTED NEUTROPHIL” value [1] was 847.67 CELLS/uL and the BASOPHIL [1] was 0%. The EOSINOPHIL [1] was 0.33%, the “ERYTHROCYTE COUNT” value [1] was 5.75 x10E6/uL and the HEMATOCRIT [1] was 36.08%. For the same substance, the “LEUKOCYTE COUNT” value [1] was 13.37 x10E3/uL, the “MEAN CORPUSCULAR HEMOGLOBIN CONCENTRATION” value [1] was 38.98 G/DL and the MONOCYTE [1] was 1%. For the same substance, the NEUTROPHIL [1] was 6.17%, the “NUCLEATED RED BLOOD CELLS” value [1] was 0.17 /100WBC and the “PLATELET COUNT” value [1] was 1202.17 x10E3/uL. The “ALANINE AMINOTRANSFERASE” value [2] was 50.67 u/L, the “ALKALINE PHOSPHATASE” value [2] was 356.33 u/L and the “ASPARTATE AMINOTRANSFERASE” value [2] was 78.17 u/L. For the same substance, the “BLOOD UREA NITROGEN” value [2] was 14.17 mg/dL, the “CARBON DIOXIDE” value [2] was 31.33 mmol/L and the CHLORIDE [2] was 98.5 MEQ/L. For the same substance, the CHOLESTEROL [2] was 76.5 mg/dL, the “CREATINE PHOSPHOKINASE” value [2] was 248.33 u/L and the CREATININE [2] was 0.2 mg/dL. The “LACTATE DEHYDROGENASE” value [2] was 107 u/L, the LIPASE [2] was 9.83 u/L and the PHOSPHORUS [2] was 12.8 mg/dL. The POTASSIUM [2] was 6.75 MEQ/L, the “TOTAL BILIRUBIN” value [2] was 0.18 mg/dL and the “TOTAL PROTEIN” value [2] was 5.98 G/DL. The “URIC ACID” value [2] was 1.42 mg/dL, the “ABSOLUTE BASOPHIL” value [3] was 0 CELLS/uL and the “ABSOLUTE EOSINOPHIL” value [3] was 0 CELLS/uL. For the same substance, the “ABSOLUTE LYMPHOCYTE” value [3] was 8681.17 CELLS/uL, the “ABSOLUTE MONOCYTE” value [3] was 79.83 CELLS/uL and the “ABSOLUTE SEGMENTED NEUTROPHIL” value [3] was 689 CELLS/uL. For the same substance, the BASOPHIL [3] was 0%, the EOSINOPHIL [3] was 0% and the “ERYTHROCYTE COUNT” value [3] was 5.49 x10E6/uL. For the same substance, the HEMATOCRIT [3] was 33.55%, the HEMOGLOBIN [3] was 13.1 G/DL and the “LEUKOCYTE COUNT” value [3] was 9.45 x10E3/uL. The LYMPHOCYTE [3] was 92.33%, the “MEAN CORPUSCULAR HEMOGLOBIN” value [3] was 23.92 pg and the “MEAN CORPUSCULAR HEMOGLOBIN CONCENTRATION” value [3] was 39.07 G/DL. For the same substance, the MONOCYTE [3] was 0.67%, the NEUTROPHIL [3] was 7% and the “NUCLEATED RED BLOOD CELLS” value [3] was 0.17 /100WBC. The “PLATELET COUNT” value [3] was 1001.17 x10E3/uL, the “ALANINE AMINOTRANSFERASE” value [4] was 49.33 u/L and the “ALKALINE PHOSPHATASE” value [4] was 300.33 u/L. The “ASPARTATE AMINOTRANSFERASE” value [4] was 83.5 u/L, the “BLOOD UREA NITROGEN” value [4] was 16 mg/dL and the CHLORIDE [4] was 100.5 MEQ/L. For the same substance, the CHOLESTEROL [4] was 74.33 mg/dL, the “CREATINE PHOSPHOKINASE” value [4] was 489.67 u/L and the CREATININE [4] was 0.35 mg/dL. For the same substance, the GLUCOSE [4] was 151 mg/dL, the “LACTATE DEHYDROGENASE” value [4] was 133.67 u/L and the LIPASE [4] was 11.17 u/L. For the same substance, the PHOSPHORUS [4] was 10.88 mg/dL, the POTASSIUM [4] was 5.5 MEQ/L and the SODIUM [4] was 145.7 MEQ/L. The “TOTAL BILIRUBIN” value [4] was 0.2 mg/dL, the “TOTAL PROTEIN” value [4] was 6.05 G/DL and the “URIC ACID” value [4] was 0.68 mg/dL. The “ABSOLUTE BASOPHIL” value [5] was 0 CELLS/uL, the “ABSOLUTE EOSINOPHIL” value [5] was 125.67 CELLS/uL and the “ABSOLUTE LYMPHOCYTE” value [5] was 10005 CELLS/uL. For the same substance, the “ABSOLUTE MONOCYTE” value [5] was 182.33 CELLS/uL, the “ABSOLUTE SEGMENTED NEUTROPHIL” value [5] was 487 CELLS/uL and the BASOPHIL [5] was 0%. For the same substance, the EOSINOPHIL [5] was 1%, the “ERYTHROCYTE COUNT” value [5] was 5.79 x10E6/uL and the HEMATOCRIT [5] was 34.9%. For the same substance, the HEMOGLOBIN [5] was 13.63 G/DL, the “LEUKOCYTE COUNT” value [5] was 10.8 x10E3/uL and the LYMPHOCYTE [5] was 92.67%. For the same substance, the “MEAN CORPUSCULAR HEMOGLOBIN” value [5] was 23.53 pg, the “MEAN CORPUSCULAR HEMOGLOBIN CONCENTRATION” value [5] was 39.07 G/DL and the “MEAN CORPUSCULAR VOLUME” value [5] was 60.3 fL. The NEUTROPHIL [5] was 5%, the “NUCLEATED RED BLOOD CELLS” value [5] was 0 /100WBC and the “PLATELET COUNT” value [5] was 964.33 x10E3/uL. The “ALANINE AMINOTRANSFERASE” value [6] was 55.67 u/L, the “ALKALINE PHOSPHATASE” value [6] was 341.67 u/L and the “ASPARTATE AMINOTRANSFERASE” value [6] was 108 u/L. The “BLOOD UREA NITROGEN” value [6] was 12.67 mg/dL, the “CARBON DIOXIDE” value [6] was 29.33 mmol/L and the CHLORIDE [6] was 100 MEQ/L. The CHOLESTEROL [6] was 73.67 mg/dL, the “CREATINE PHOSPHOKINASE” value [6] was 327.67 u/L and the CREATININE [6] was 0.26 mg/dL. The GLUCOSE [6] was 150.33 mg/dL, the “LACTATE DEHYDROGENASE” value [6] was 126.67 u/L and the LIPASE [6] was 14.33 u/L. For the same substance, the POTASSIUM [6] was 6.03 MEQ/L, the “TOTAL BILIRUBIN” value [6] was 0.0667 mg/dL and the “TOTAL PROTEIN” value [6] was 5.93 G/DL. For the same substance, the “URIC ACID” value [6] was 1.2 mg/dL.
